Tested on: H1299, A549, H157, and H4006 cells
Experiment: clonogenic survival assay, TTFields combined with E2F and CDK 4/6 inhibitors
Type: cell-based, Human
Details: single inhibitor plus TTFields, Highest Single Agent approach
Description: FIGS. 6A-6B provide the results of exemplary clonogenic survival assays in four lung cancer cells lines—H1299, A549, H157, and H4006 cells—under various conditions testing combinations of TTFields with agents that dysregulate E2F signaling or CDK4/6 signaling at 24, 48, and 72 hours. […] Cell survival after increased exposure to TTFields alone, or in combination with a E2F inhibitor, a CDK 4/6 inhibitor or to a combination of E2F inhibitor and CDK 4/6 inhibitor is shown.
Human NSCLC cell lines (H157, H4006, A549, and H1299) were purchased from American Tissue Culture Collection. All these cell lines were grown in RPMI medium supplemented with 10% (v/v) fetal bovine serum (Atlanta Biologicals, Flowery Branch, Ga., USA) and penicillin/streptavidin (final concentration 50 μg/ml; Sigma-Aldrich, St. Louis, Mo., U29SA). All cells were grown at 37° C. in a humidified incubator constantly supplied with 5% CO2.
The inovitro system (NovoCure Ltd, Haifa, Israel) was used to generate TTFields that use two pairs of electrodes printed perpendicularly on the outer walls of a Petri dish composed of high dielectric constant ceramic (lead magnesium niobate-lead titanite (PMN-PT)). […] The temperature was measured by 2 thermistors (Omega Engineering, Stamford, Conn., USA) attached to the ceramic walls. […]

CCOc1ccc(C(Nc2ccccn2)c2ccc3ccc(C)nc3c2O)cc1C (stereo not shown) [HLM006474]
cell killing in combination with TTFields as compared to TTFields alone: enhanced cell killing synergistically

— US20210292741A1, “COMBINATION THERAPEUTICS USING TUMOR TREATING FIELDS (TTFIELDS)” (THE BOARD OF REGENTS OF THE UNIVERSITY OF TEXAS SYSTEM, priority 2020, published 2021)
